Experimental data taken from article PMC8490825 (Frontiers in Molecular Biosciences, 2021).
Where a SMILES comes first, the peptide text is derived from it. Bridges are numbered along the chain shown (N, C = ends).

Key:
hNaV1.7 = hNaV1.7 (Homo sapiens, UniProt Q15858); test: cell-based; assay type: cell-based
hNaV1.1 = hNaV1.1 (Homo sapiens, UniProt P35498); test: cell-based; assay type: cell-based

hNaV1.7, sequence (Q15858 whole entry, looked up): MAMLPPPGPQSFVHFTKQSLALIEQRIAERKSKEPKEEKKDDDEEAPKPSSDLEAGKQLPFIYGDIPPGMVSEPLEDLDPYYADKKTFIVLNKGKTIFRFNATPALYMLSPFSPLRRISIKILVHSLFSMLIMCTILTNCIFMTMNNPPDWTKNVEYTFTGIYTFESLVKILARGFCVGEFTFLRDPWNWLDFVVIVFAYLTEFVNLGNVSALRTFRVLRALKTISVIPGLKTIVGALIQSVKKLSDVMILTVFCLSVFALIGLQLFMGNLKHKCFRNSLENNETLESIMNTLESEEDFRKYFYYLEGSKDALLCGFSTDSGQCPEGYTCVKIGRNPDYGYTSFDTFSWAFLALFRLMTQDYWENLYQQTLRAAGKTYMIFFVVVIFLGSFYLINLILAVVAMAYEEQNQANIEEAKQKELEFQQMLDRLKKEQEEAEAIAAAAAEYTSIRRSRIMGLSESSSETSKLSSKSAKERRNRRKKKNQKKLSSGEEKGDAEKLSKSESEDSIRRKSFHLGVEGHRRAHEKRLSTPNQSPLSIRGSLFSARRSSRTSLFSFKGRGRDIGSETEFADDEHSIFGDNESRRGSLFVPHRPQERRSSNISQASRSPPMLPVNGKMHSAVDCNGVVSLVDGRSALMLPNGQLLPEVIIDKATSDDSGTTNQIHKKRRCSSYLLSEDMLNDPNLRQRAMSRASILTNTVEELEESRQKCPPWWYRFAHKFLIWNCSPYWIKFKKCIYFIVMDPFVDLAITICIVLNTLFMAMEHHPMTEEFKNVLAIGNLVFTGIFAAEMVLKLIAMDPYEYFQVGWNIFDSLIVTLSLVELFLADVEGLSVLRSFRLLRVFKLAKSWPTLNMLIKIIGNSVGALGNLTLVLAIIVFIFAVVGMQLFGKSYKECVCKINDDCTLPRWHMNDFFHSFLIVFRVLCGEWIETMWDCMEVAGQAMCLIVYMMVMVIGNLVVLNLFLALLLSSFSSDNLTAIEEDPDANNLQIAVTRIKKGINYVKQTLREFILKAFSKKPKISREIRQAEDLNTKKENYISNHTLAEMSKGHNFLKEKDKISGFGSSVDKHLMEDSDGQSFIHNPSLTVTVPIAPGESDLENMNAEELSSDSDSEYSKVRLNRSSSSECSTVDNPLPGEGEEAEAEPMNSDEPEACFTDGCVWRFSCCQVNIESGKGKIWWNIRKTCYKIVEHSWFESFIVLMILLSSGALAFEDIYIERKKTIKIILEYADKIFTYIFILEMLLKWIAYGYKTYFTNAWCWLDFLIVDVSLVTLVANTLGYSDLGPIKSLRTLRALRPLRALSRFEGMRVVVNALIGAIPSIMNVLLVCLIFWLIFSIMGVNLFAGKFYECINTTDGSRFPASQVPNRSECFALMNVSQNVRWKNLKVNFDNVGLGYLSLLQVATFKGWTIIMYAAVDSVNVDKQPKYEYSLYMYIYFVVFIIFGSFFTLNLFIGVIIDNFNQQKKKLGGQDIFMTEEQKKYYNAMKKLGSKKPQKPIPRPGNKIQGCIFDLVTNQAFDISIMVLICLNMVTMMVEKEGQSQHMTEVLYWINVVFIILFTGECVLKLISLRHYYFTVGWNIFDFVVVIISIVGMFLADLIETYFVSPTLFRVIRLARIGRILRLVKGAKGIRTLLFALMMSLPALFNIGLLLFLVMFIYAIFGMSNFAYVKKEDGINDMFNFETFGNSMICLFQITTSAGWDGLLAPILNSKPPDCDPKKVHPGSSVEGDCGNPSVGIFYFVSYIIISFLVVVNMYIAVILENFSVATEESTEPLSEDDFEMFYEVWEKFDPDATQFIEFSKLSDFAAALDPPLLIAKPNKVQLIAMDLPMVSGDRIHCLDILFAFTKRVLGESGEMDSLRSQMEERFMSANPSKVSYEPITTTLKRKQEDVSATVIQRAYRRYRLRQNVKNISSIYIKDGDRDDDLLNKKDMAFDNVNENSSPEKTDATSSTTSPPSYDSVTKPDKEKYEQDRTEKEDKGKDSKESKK

| Structure (SMILES) | IC50 (hNaV1.7) [nM] | IC50 (hNaV1.1) [nM] | inhibition of NaV1.7, in words (hNaV1.7) | inhibition of NaV1.1, in words (hNaV1.1) |
| --- | --- | --- | --- | --- |
| CSCC[C@@H]1NC(=O)CNC(=O)[C@H](CC(C)C)NC(=O)[C@@H](NC(=O)[C@H](CC(=O)O)NC(=O)[C@H](CC(=O)O)NC(=O)CN)CSSC[C@@H]2NC(=O)[C@@H]3CSSC[C@@H](C(=O)N[C@@H](CCCCN)C(=O)N[C@@H](Cc4ccc(O)cc4)C(=O)N[C@@H](CCC(N)=O)C(=O)N[C@@H](CC(C)C)C(=O)N[C@@H](Cc4c[nH]c5ccccc45)C(=O)O)NC(=O)[C@H](Cc4c[nH]c5ccccc45)NC(=O)[C@H](CCC(N)=O)NC(=O)[C@H](CC(=O)O)NC(=O)[C@H](CCCCN)NC(=O)[C@H](CCCNC(=N)N)NC(=O)[C@H](CO)NC(=O)[C@H](CSSC[C@H](NC(=O)[C@H](CO)NC(=O)[C@H](CO)NC(=O)[C@H](Cc4ccccc4)NC1=O)C(=O)N[C@@H](CC(=O)O)C(=O)N1CCC[C@H]1C(=O)N[C@@H](CC(N)=O)C(=O)N[C@@H](CC(N)=O)C(=O)N[C@@H](C)C(=O)N[C@@H](CCCCN)C(=O)N3)NC(=O)[C@H](CCCCN)NC(=O)[C@H](CCCNC(=N)N)NC(=O)[C@H](CC(N)=O)NC(=O)[C@@H]1CCCN1C2=O [Peptide D15A] (H-GDDCLGMFSSCDPNNAKCCPNRKCSRKDQWCKYQLW-OH; disulfide 4-19, 11-24, 18-31) | > 1000 | > 1000 | – | – |
| CSCC[C@@H]1NC(=O)CNC(=O)[C@H](CC(C)C)NC(=O)[C@@H](NC(=O)[C@H](CC(=O)O)NC(=O)[C@H](CC(=O)O)NC(=O)CN)CSSC[C@@H]2NC(=O)[C@@H]3CSSC[C@@H](C(=O)N[C@@H](CCCCN)C(=O)N[C@@H](Cc4ccc(O)cc4)C(=O)N[C@@H](CCC(N)=O)C(=O)N[C@@H](CC(C)C)C(=O)N[C@@H](Cc4c[nH]c5ccccc45)C(=O)O)NC(=O)[C@H](Cc4c[nH]c5ccccc45)NC(=O)[C@H](CCC(N)=O)NC(=O)[C@H](C)NC(=O)[C@H](CCCCN)NC(=O)[C@H](CCCNC(=N)N)NC(=O)[C@H](CO)NC(=O)[C@H](CSSC[C@H](NC(=O)[C@H](CO)NC(=O)[C@H](CO)NC(=O)[C@H](Cc4ccccc4)NC1=O)C(=O)N[C@@H](CC(=O)O)C(=O)N1CCC[C@H]1C(=O)N[C@@H](CC(N)=O)C(=O)N[C@@H](CC(N)=O)C(=O)N[C@@H](CC(=O)O)C(=O)N[C@@H](CCCCN)C(=O)N3)NC(=O)[C@H](CCCCN)NC(=O)[C@H](CCCNC(=N)N)NC(=O)[C@H](CC(N)=O)NC(=O)[C@@H]1CCCN1C2=O [Peptide D27A] (H-GDDCLGMFSSCDPNNDKCCPNRKCSRKAQWCKYQLW-OH; disulfide 4-19, 11-24, 18-31) | 353 | 287 | – | – |
| CSCC[C@@H]1NC(=O)CNC(=O)[C@H](CC(C)C)NC(=O)[C@@H](NC(=O)[C@H](CC(=O)O)NC(=O)[C@H](CC(=O)O)NC(=O)CN)CSSC[C@@H]2NC(=O)[C@@H]3CSSC[C@@H](C(=O)N[C@@H](CCCCN)C(=O)N[C@@H](Cc4ccc(O)cc4)C(=O)N[C@@H](CCC(N)=O)C(=O)N[C@@H](CC(C)C)C(=O)N[C@@H](Cc4c[nH]c5ccccc45)C(=O)O)NC(=O)[C@H](Cc4c[nH]c5ccccc45)NC(=O)[C@H](CCC(N)=O)NC(=O)[C@H](CC(=O)O)NC(=O)[C@H](CCCCN)NC(=O)[C@H](CCCNC(=N)N)NC(=O)[C@H](CO)NC(=O)[C@H](CSSC[C@H](NC(=O)[C@H](CO)NC(=O)[C@H](CO)NC(=O)[C@H](C)NC1=O)C(=O)N[C@@H](CC(=O)O)C(=O)N1CCC[C@H]1C(=O)N[C@@H](CC(N)=O)C(=O)N[C@@H](CC(N)=O)C(=O)N[C@@H](CC(=O)O)C(=O)N[C@@H](CCCCN)C(=O)N3)NC(=O)[C@H](CCCCN)NC(=O)[C@H](CCCNC(=N)N)NC(=O)[C@H](CC(N)=O)NC(=O)[C@@H]1CCCN1C2=O [Peptide F7A] (H-GDDCLGMASSCDPNNDKCCPNRKCSRKDQWCKYQLW-OH; disulfide 4-19, 11-24, 18-31) | > 1000 | > 1000 | completely lost its inhibition | completely lost its inhibition |
| CSCC[C@@H]1NC(=O)CNC(=O)[C@H](CC(C)C)NC(=O)[C@@H](NC(=O)[C@H](CC(=O)O)NC(=O)[C@H](CC(=O)O)NC(=O)CN)CSSC[C@@H]2NC(=O)[C@@H]3CSSC[C@@H](C(=O)N[C@@H](C)C(=O)N[C@@H](Cc4ccc(O)cc4)C(=O)N[C@@H](CCC(N)=O)C(=O)N[C@@H](CC(C)C)C(=O)N[C@@H](Cc4c[nH]c5ccccc45)C(=O)O)NC(=O)[C@H](Cc4c[nH]c5ccccc45)NC(=O)[C@H](CCC(N)=O)NC(=O)[C@H](CC(=O)O)NC(=O)[C@H](CCCCN)NC(=O)[C@H](CCCNC(=N)N)NC(=O)[C@H](CO)NC(=O)[C@H](CSSC[C@H](NC(=O)[C@H](CO)NC(=O)[C@H](CO)NC(=O)[C@H](Cc4ccccc4)NC1=O)C(=O)N[C@@H](CC(=O)O)C(=O)N1CCC[C@H]1C(=O)N[C@@H](CC(N)=O)C(=O)N[C@@H](CC(N)=O)C(=O)N[C@@H](CC(=O)O)C(=O)N[C@@H](CCCCN)C(=O)N3)NC(=O)[C@H](CCCCN)NC(=O)[C@H](CCCNC(=N)N)NC(=O)[C@H](CC(N)=O)NC(=O)[C@@H]1CCCN1C2=O [Peptide K31A] (H-GDDCLGMFSSCDPNNDKCCPNRKCSRKDQWCAYQLW-OH; disulfide 4-19, 11-24, 18-31) | > 1000 | > 1000 | loss of activity | loss of activity |
| CSCC[C@@H]1NC(=O)CNC(=O)[C@H](CC(C)C)NC(=O)[C@@H](NC(=O)[C@H](CC(=O)O)NC(=O)[C@H](CC(=O)O)NC(=O)CN)CSSC[C@@H]2NC(=O)[C@@H]3CSSC[C@@H](C(=O)N[C@@H](CCCCN)C(=O)N[C@@H](Cc4ccc(O)cc4)C(=O)N[C@@H](CCC(N)=O)C(=O)N[C@@H](C)C(=O)N[C@@H](Cc4c[nH]c5ccccc45)C(=O)O)NC(=O)[C@H](Cc4c[nH]c5ccccc45)NC(=O)[C@H](CCC(N)=O)NC(=O)[C@H](CC(=O)O)NC(=O)[C@H](CCCCN)NC(=O)[C@H](CCCNC(=N)N)NC(=O)[C@H](CO)NC(=O)[C@H](CSSC[C@H](NC(=O)[C@H](CO)NC(=O)[C@H](CO)NC(=O)[C@H](Cc4ccccc4)NC1=O)C(=O)N[C@@H](CC(=O)O)C(=O)N1CCC[C@H]1C(=O)N[C@@H](CC(N)=O)C(=O)N[C@@H](CC(N)=O)C(=O)N[C@@H](CC(=O)O)C(=O)N[C@@H](CCCCN)C(=O)N3)NC(=O)[C@H](CCCCN)NC(=O)[C@H](CCCNC(=N)N)NC(=O)[C@H](CC(N)=O)NC(=O)[C@@H]1CCCN1C2=O [Peptide L34A] (H-GDDCLGMFSSCDPNNDKCCPNRKCSRKDQWCKYQAW-OH; disulfide 4-19, 11-24, 18-31) | > 1000 | > 1000 | – | – |
| CC(C)C[C@@H]1NC(=O)[C@@H](NC(=O)[C@H](CC(=O)O)NC(=O)[C@H](CC(=O)O)NC(=O)CN)CSSC[C@@H]2NC(=O)[C@@H]3CSSC[C@@H](C(=O)N[C@@H](CCCCN)C(=O)N[C@@H](Cc4ccc(O)cc4)C(=O)N[C@@H](CCC(N)=O)C(=O)N[C@@H](CC(C)C)C(=O)N[C@@H](Cc4c[nH]c5ccccc45)C(=O)O)NC(=O)[C@H](Cc4c[nH]c5ccccc45)NC(=O)[C@H](CCC(N)=O)NC(=O)[C@H](CC(=O)O)NC(=O)[C@H](CCCCN)NC(=O)[C@H](CCCNC(=N)N)NC(=O)[C@H](CO)NC(=O)[C@H](CSSC[C@H](NC(=O)[C@H](CO)NC(=O)[C@H](CO)NC(=O)[C@H](Cc4ccccc4)NC(=O)[C@H](C)NC(=O)CNC1=O)C(=O)N[C@@H](CC(=O)O)C(=O)N1CCC[C@H]1C(=O)N[C@@H](CC(N)=O)C(=O)N[C@@H](CC(N)=O)C(=O)N[C@@H](CC(=O)O)C(=O)N[C@@H](CCCCN)C(=O)N3)NC(=O)[C@H](CCCCN)NC(=O)[C@H](CCCNC(=N)N)NC(=O)[C@H](CC(N)=O)NC(=O)[C@@H]1CCCN1C2=O [Peptide M6A] (H-GDDCLGAFSSCDPNNDKCCPNRKCSRKDQWCKYQLW-OH; disulfide 4-19, 11-24, 18-31) | > 1000 | > 1000 | – | – |
| CSCC[C@@H]1NC(=O)CNC(=O)[C@H](CC(C)C)NC(=O)[C@@H](NC(=O)[C@H](CC(=O)O)NC(=O)[C@H](CC(=O)O)NC(=O)CN)CSSC[C@@H]2NC(=O)[C@@H]3CSSC[C@@H](C(=O)N[C@@H](CCCCN)C(=O)N[C@@H](Cc4ccc(O)cc4)C(=O)N[C@@H](CCC(N)=O)C(=O)N[C@@H](CC(C)C)C(=O)N[C@@H](Cc4c[nH]c5ccccc45)C(=O)O)NC(=O)[C@H](Cc4c[nH]c5ccccc45)NC(=O)[C@H](CCC(N)=O)NC(=O)[C@H](CC(=O)O)NC(=O)[C@H](CCCCN)NC(=O)[C@H](CCCNC(=N)N)NC(=O)[C@H](CO)NC(=O)[C@H](CSSC[C@H](NC(=O)[C@H](CO)NC(=O)[C@H](CO)NC(=O)[C@H](Cc4ccccc4)NC1=O)C(=O)N[C@@H](CC(=O)O)C(=O)N[C@@H](C)C(=O)N[C@@H](CC(N)=O)C(=O)N[C@@H](CC(N)=O)C(=O)N[C@@H](CC(=O)O)C(=O)N[C@@H](CCCCN)C(=O)N3)NC(=O)[C@H](CCCCN)NC(=O)[C@H](CCCNC(=N)N)NC(=O)[C@H](CC(N)=O)NC(=O)[C@@H]1CCCN1C2=O [Peptide P12A] (H-GDDCLGMFSSCDANNDKCCPNRKCSRKDQWCKYQLW-OH; disulfide 4-19, 11-24, 18-31) | > 1000 | > 1000 | – | – |
| CSCC[C@@H]1NC(=O)CNC(=O)[C@H](CC(C)C)NC(=O)[C@@H](NC(=O)[C@H](CC(=O)O)NC(=O)[C@H](CC(=O)O)NC(=O)CN)CSSC[C@@H]2NC(=O)[C@@H]3CSSC[C@@H](C(=O)N[C@@H](CCCCN)C(=O)N[C@@H](Cc4ccc(O)cc4)C(=O)N[C@@H](CCC(N)=O)C(=O)N[C@@H](CC(C)C)C(=O)N[C@@H](Cc4c[nH]c5ccccc45)C(=O)O)NC(=O)[C@H](Cc4c[nH]c5ccccc45)NC(=O)[C@H](C)NC(=O)[C@H](CC(=O)O)NC(=O)[C@H](CCCCN)NC(=O)[C@H](CCCNC(=N)N)NC(=O)[C@H](CO)NC(=O)[C@H](CSSC[C@H](NC(=O)[C@H](CO)NC(=O)[C@H](CO)NC(=O)[C@H](Cc4ccccc4)NC1=O)C(=O)N[C@@H](CC(=O)O)C(=O)N1CCC[C@H]1C(=O)N[C@@H](CC(N)=O)C(=O)N[C@@H](CC(N)=O)C(=O)N[C@@H](CC(=O)O)C(=O)N[C@@H](CCCCN)C(=O)N3)NC(=O)[C@H](CCCCN)NC(=O)[C@H](CCCNC(=N)N)NC(=O)[C@H](CC(N)=O)NC(=O)[C@@H]1CCCN1C2=O [Peptide Q28A] (H-GDDCLGMFSSCDPNNDKCCPNRKCSRKDAWCKYQLW-OH; disulfide 4-19, 11-24, 18-31) | > 1000 | > 1000 | – | – |
